Our source for the inhibition, Ki and Activity values is ChEMBL document CHEMBL5614467, “Structure-Activity Relationship of Truncated 4'-Selenonucleosides: A3 Adenosine Receptor Activity and Binding Selectivity” (ACS Med Chem Lett, 2024).

pKi: −log10 of the molar value.

The target in test [1] is T1, Adenosine receptor A1 (Homo sapiens) (UniProt P30542).
T1 sequence (whole entry): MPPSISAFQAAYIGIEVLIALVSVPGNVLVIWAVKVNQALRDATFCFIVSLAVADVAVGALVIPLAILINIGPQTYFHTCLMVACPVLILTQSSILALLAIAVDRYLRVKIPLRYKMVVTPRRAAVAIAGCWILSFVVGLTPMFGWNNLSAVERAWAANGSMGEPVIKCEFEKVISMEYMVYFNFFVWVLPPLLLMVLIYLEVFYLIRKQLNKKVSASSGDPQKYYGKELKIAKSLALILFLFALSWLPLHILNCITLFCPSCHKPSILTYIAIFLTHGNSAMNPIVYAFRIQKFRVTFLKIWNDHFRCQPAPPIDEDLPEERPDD
The test can be described thus: Displacement of [3H]DPCPX from human adenosine A1 receptor extracted from CHO cell membrane assessed as inhibition of [3H]DPCPX binding at 10 uM incubated for 60 mins by microplate beta scintillation counter relative to control. Format: cell membranes. On the technique in general: In a radioligand displacement assay an active substance lowers the binding of a labelled ligand.

Test [2] deals with Adenosine receptor A2a (Homo sapiens) (UniProt P29274). Put plainly: Displacement of [3H]ZM241385 from human adenosine A2A receptor extracted from human HeLa cell membrane assessed as inhibition of [3H]ZM241385 binding at 10 uM incubated for 30 mins by microplate beta scintillation counter relative to control. It counts as cell membranes.
Chain of Adenosine receptor A2a (Homo sapiens) (P29274 whole entry): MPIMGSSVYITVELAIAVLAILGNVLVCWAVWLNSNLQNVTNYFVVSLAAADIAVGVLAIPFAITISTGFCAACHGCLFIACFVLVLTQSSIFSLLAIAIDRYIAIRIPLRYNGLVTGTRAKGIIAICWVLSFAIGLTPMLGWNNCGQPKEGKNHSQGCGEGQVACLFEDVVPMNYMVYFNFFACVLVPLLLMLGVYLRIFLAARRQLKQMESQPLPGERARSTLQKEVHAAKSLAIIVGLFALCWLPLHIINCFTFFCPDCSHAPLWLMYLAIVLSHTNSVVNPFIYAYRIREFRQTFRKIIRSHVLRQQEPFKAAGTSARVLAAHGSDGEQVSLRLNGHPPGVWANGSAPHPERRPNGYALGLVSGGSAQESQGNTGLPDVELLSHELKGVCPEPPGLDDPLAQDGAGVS
The target of test [3] is T2, Adenosine receptor A2b (Homo sapiens) (UniProt P29275).
T2 sequence (whole entry): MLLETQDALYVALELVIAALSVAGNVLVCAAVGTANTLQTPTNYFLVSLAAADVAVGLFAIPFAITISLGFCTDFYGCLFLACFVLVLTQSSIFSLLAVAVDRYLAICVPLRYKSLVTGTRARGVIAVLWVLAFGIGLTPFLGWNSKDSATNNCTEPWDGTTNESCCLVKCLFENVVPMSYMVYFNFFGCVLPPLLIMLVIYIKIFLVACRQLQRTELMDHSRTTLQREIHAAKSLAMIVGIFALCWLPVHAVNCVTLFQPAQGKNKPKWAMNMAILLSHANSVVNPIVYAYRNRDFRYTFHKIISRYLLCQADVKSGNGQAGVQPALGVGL
The test can be described thus: Displacement of [3H]DPCPX from human adenosine A2B receptor extracted from HEK293 cell membrane assessed as inhibition of [3H]DPCPX binding at 10 uM incubated for 30 mins by microplate beta scintillation counter relative to control. Format: cell membranes.

Test [4] deals with T3, Adenosine receptor A3 (Homo sapiens, UniProt P0DMS8).
T3 sequence (P0DMS8 whole entry): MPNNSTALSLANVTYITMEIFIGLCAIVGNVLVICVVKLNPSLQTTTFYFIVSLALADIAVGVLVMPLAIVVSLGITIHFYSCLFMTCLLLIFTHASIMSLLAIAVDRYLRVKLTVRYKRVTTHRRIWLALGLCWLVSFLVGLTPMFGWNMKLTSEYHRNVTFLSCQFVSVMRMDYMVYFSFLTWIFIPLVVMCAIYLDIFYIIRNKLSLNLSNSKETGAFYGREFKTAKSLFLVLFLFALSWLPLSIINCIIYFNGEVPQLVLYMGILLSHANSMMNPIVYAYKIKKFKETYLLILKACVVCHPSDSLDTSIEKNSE
The test can be described thus: Displacement of [3H]NECA from human adenosine A3 receptor extracted from human HeLa cell membrane assessed as inhibition constant incubated for 180 mins by microplate scintillation counter. Format: cell membranes.

The target of test [5] is T3, Adenosine receptor A3. The test can be described thus: Binding affinity to human adenosine A3 receptor assessed as inhibition constant.
In test [6] the target is T4, Adenosine receptor A3 (Homo sapiens) (UniProt P0DMS8).
T4 sequence (whole entry): T3 sequence (P0DMS8 whole entry)
The test can be described thus: Antagonist activity at human adenosine A3 receptor expressed in CHO cells assessed as inhibition of cAMP production preincubated for 15 mins followed by NECA addition for 10 mins and measured 5 mins after forskolin addition by enzyme immunoassay relative to control. It counts as functional, cell-based. The settings on record: time 30.0 min. On the technique in general: Cyclic AMP is a second messenger, typically raised through Gs and lowered through Gi signalling.

In test [7] the target is T4, Adenosine receptor A3 (Homo sapiens). Put plainly: Partial agonist activity at human adenosine A3 receptor expressed in CHO cells assessed as cAMP production preincubated for 15 mins followed by forskolin addition and measured after 5 mins by enzyme immunoassay relative to control. It counts as functional, cell-based. To be noted: filed as partial agonist, time 20.0 min.

Test [8] addresses T3, Adenosine receptor A3. Put plainly: Displacement of [125I]iodo-AB-MECA from human adenosine A3 receptor expressed in CHO cells assessed as inhibition constant. Format: cell-based.

Broadly, the inhibition is how much of the control response was suppressed. As usually defined, the pKi is the negative decadic logarithm of the Ki, by convention in mol/L. Take `O[C@@H]1[C@H](O)C[Se][C@H]1n1cnc2c(NCc3cccc(F)c3)nc(Cl)nc21`: the inhibition came out at 23% in test [1], 7% in test [2] and 22% in test [3]. Moreover, in test [4], the pKi was 7.01.

With `Nc1nc(Cl)nc2c1ncn2[C@@H]1[Se]C[C@@H](O)[C@H]1O`, the results for the inhibition in test [1], in test [2] and in test [3] were 22%, 12% and 35%, respectively. For the same compound, in test [4], the pKi was 6.45.

For `Nc1ncnc2c1ncn2[C@@H]1[Se]C[C@@H](O)[C@H]1O`, the inhibition in test [1] stood at 10%; in test [2], 33%; in test [3] it was 25%. The pKi in test [4] was 6.62.

With `O[C@@H]1[C@H](O)C[Se][C@H]1n1cnc2c(NCc3cccc(I)c3)nc(Cl)nc21`, the results for the inhibition in test [1], in test [2] and in test [3] were 57%, 24% and 67%, respectively. In addition, in test [4], the pKi is 6.96.

In the case of `CNc1ncnc2c1ncn2[C@@H]1[Se]C[C@@H](O)[C@H]1O`, the figures for the inhibition in test [1], in test [2] and in test [3] were 7%, 2% and 1%, respectively. In addition, the pKi in test [4] is 7.51.

For `CNC(=O)C1O[C@@H](n2cnc3c(Nc4cccc(I)c4)nc(Cl)nc32)[C@H](O)[C@@H]1O` (stereo partly specified), the pKi in test [5] is 8.85.

As for `CNc1nc(Cl)nc2c1ncn2[C@@H]1[Se]C[C@@H](O)[C@H]1O`, the inhibition in test [1] was found to be 14%; in test [2] it was 3%; in test [3], 28%. Also, the pKi in test [4] is 7.60.

For `O[C@@H]1[C@H](O)C[Se][C@H]1n1cnc2c(NCc3cccc(Br)c3)nc(Cl)nc21`, the inhibition in test [1] is 62%; in test [2], 35%; in test [3] it was 43%. In addition, the pKi in test [4] is 7.42.

On to `O[C@@H]1[C@H](O)C[Se][C@H]1n1cnc2c(NCc3cccc(Cl)c3)ncnc21`, for which the inhibition was determined as 32% in test [1], 25% in test [2] and 30% in test [3]. For the same compound, in test [4], the pKi is 7.49.

Take `O[C@@H]1[C@H](O)C[Se][C@H]1n1cnc2c(NC3CCCC3)nc(Cl)nc21`: the inhibition in test [1] came out at 54%; in test [2], 13%; in test [3], 37%. In addition, the pKi in test [4] is 7.77.

For `O[C@@H]1[C@H](O)C[Se][C@H]1n1cnc2c(NC3CC3)nc(Cl)nc21`, the inhibition in test [1] turned out to be 26%; in test [2] it was 6%; in test [3], 29%; in test [6] it was 11%. Also, the pKi in test [4] is 8.24. In addition, the Activity in test [7] amounted to 87%.

With `O[C@@H]1[C@H](O)C[Se][C@H]1n1cnc2c(NCc3cccc(I)c3)ncnc21`, the inhibition was 25% in test [1], 19% in test [2] and 20% in test [3]. Besides, the pKi in test [4] was 7.36.

Consider `CNC(=O)C1S[C@@H](n2cnc3c(Nc4cccc(I)c4)nc(Cl)nc32)[C@H](O)[C@@H]1O` (stereo partly specified), for which the pKi in test [8] was 9.42.

Consider `CCNc1nc(Cl)nc2c1ncn2[C@@H]1[Se]C[C@@H](O)[C@H]1O`, for which the values for the inhibition in test [1], in test [2] and in test [3] were 31%, 3% and 18%, respectively. Besides, in test [4], the negative-log Ki (pKi) is 8.28.

As to `O[C@@H]1[C@H](O)C[Se][C@H]1n1cnc2c(NC3CC3)ncnc21`, the results for the inhibition in test [1], in test [2] and in test [3] were 20%, 9% and 15%, respectively. Further, in test [4], the pKi is 7.87.

On to `O[C@@H]1[C@H](O)C[Se][C@H]1n1cnc2c(NC3CCCC3)ncnc21`, for which the inhibition in test [1] was determined as 39%; in test [2], 16%; in test [3], 7%. In addition, in test [4], the pKi is 7.44.

For `O[C@@H]1[C@H](O)C[Se][C@H]1n1cnc2c(NCc3cccc(Br)c3)ncnc21`, the inhibition in test [1] stood at 39%; in test [2], 28%; in test [3] it was 37%. For the same compound, the pKi in test [4] was 7.68.

Regarding `CCNc1ncnc2c1ncn2[C@@H]1[Se]C[C@@H](O)[C@H]1O`, the inhibition in test [1] was found to be 25%; in test [2], 2%; in test [3], 7%. In addition, in test [4], the pKi was 7.76.

On to `O[C@@H]1[C@H](O)C[Se][C@H]1n1cnc2c(NCc3cccc(F)c3)ncnc21`, for which the inhibition came out at 12% in test [1], 2% in test [2] and 8% in test [3]. The pKi in test [4] was 6.92.

As for `O[C@@H]1[C@H](O)C[Se][C@H]1n1cnc2c(NCc3cccc(Cl)c3)nc(Cl)nc21`, the results for the inhibition in test [1], in test [2] and in test [3] were 66%, 29% and 41%, respectively. Moreover, the pKi in test [4] is 7.48.
